Key:
Salmonella typhimurium [1] = experiment: Antimicrobial activity against Salmonella typhimurium ATCC 13311 after 18 hrs by twofold agar dilution method; format: functional, Salmonella enterica subsp. enterica serovar Typhimurium; settings: Salmonella enterica, ATCC 13311, 18 h
Enterococcus faecalis = experiment: Antimicrobial activity against Enterococcus faecalis ATCC 29212 after 18 hrs by twofold agar dilution method; format: functional; settings: ATCC 29212, 18 h
Escherichia coli [2] = experiment: Antimicrobial activity against Escherichia coli ATCC 10536 after 18 hrs by twofold agar dilution method; format: functional; settings: ATCC 10536, 18 h
Bacillus cereus = experiment: Antimicrobial activity against Bacillus cereus ATCC 27348 after 18 hrs by twofold agar dilution method; format: functional; settings: ATCC 27348, 18 h
Citrobacter koseri = experiment: Antimicrobial activity against Citrobacter diversus 2046 after 18 hrs by twofold agar dilution method; format: functional; settings: Citrobacter koseri, 2046, 18 h
Moraxella catarrhalis [3] = experiment: Antimicrobial activity against Moraxella catarrhalis 25240 after 18 hrs by twofold agar dilution method; format: functional; settings: Moraxella catarrhalis, 25240, 18 h
Klebsiella aerogenes = experiment: Antimicrobial activity against Klebsiella aerogenes harboring beta-lactamase SHV-1 1976E mutant after 18 hrs by twofold agar dilution method; format: functional
Staphylococcus aureus [4] = experiment: Antimicrobial activity against Staphylococcus aureus 77 after 18 hrs by twofold agar dilution method; format: functional; settings: Staphylococcus aureus, 77, 18 h
Klebsiella pneumoniae = experiment: Antimicrobial activity against Klebsiella pneumoniae 2011E after 18 hrs by twofold agar dilution method; format: functional
Staphylococcus aureus [5] = experiment: Antimicrobial activity against Staphylococcus aureus giorgio after 18 hrs by twofold agar dilution method; format: functional
[6] = tested on: Staphylococcus epidermidis; experiment: Antimicrobial activity against Staphylococcus epidermidis 887E after 18 hrs by twofold agar dilution method; format: functional; settings: read-out: MIC
Escherichia coli [7] = experiment: Antimicrobial activity against Escherichia coli ATCC 25922 after 18 hrs by twofold agar dilution method; format: functional; settings: ATCC 25922, 18 h
Micrococcus luteus = experiment: Antimicrobial activity against Micrococcus luteus ATCC 9341 after 18 hrs by twofold agar dilution method; format: functional; settings: ATCC 9341, 18 h, read-out: MIC
Escherichia coli [8] = experiment: Antimicrobial activity against Escherichia coli 851E after 18 hrs by twofold agar dilution method; format: functional
Morganella morganii = experiment: Antimicrobial activity against Morganella morganii 1375E after 18 hrs by twofold agar dilution method; format: functional
Serratia marcescens [9] = experiment: Antimicrobial activity against Serratia marcescens 1826E after 18 hrs by twofold agar dilution method; format: functional
Proteus vulgaris = experiment: Antimicrobial activity against Proteus vulgaris 6059 after 18 hrs by twofold agar dilution method; format: functional; settings: Proteus vulgaris, 6059, 18 h
Serratia marcescens [10] = experiment: Antimicrobial activity against Serratia marcescens ATCC 27117 after 18 hrs by twofold agar dilution method; format: functional; settings: ATCC 27117, 18 h
Bacillus licheniformis = experiment: Antimicrobial activity against Bacillus licheniformis EMR after 18 hrs by twofold agar dilution method; format: functional
Staphylococcus aureus [11] = experiment: Antimicrobial activity against Staphylococcus aureus 241 after 18 hrs by twofold agar dilution method; format: functional; settings: Staphylococcus aureus, 241, 18 h; read-out: MIC
Staphylococcus aureus [12] = experiment: Antimicrobial activity against Staphylococcus aureus ATCC 25923 after 18 hrs by twofold agar dilution method; format: functional; settings: ATCC 25923, 18 h
Bacillus subtilis = experiment: Antimicrobial activity against Bacillus subtilis ATCC 6633 after 18 hrs by twofold agar dilution method; format: functional; settings: ATCC 6633, 18 h
Enterobacter cloacae [13] = experiment: Antimicrobial activity against Enterobacter cloacae ATCC 27508 after 18 hrs by twofold agar dilution method; format: functional; settings: ATCC 27508, 18 h
Salmonella typhimurium [14] = experiment: Antimicrobial activity against Salmonella Typhimurium ATCC 14028 after 18 hrs by two-fold agar dilution method; format: functional, Salmonella enterica subsp. enterica serovar Typhimurium; settings: Salmonella enterica, ATCC 14028, 18 h
Escherichia coli [15] = experiment: Antimicrobial activity against Escherichia coli 3190Y after 18 hrs by twofold agar dilution method; format: functional
Pseudomonas aeruginosa = experiment: Antimicrobial activity against Pseudomonas aeruginosa 6065Y after 18 hrs by twofold agar dilution method; format: functional
Moraxella catarrhalis [16] = experiment: Antimicrobial activity against Moraxella catarrhalis C2431 after 18 hrs by twofold agar dilution method; format: functional; settings: C2431, 18 h
Enterobacter cloacae [17] = experiment: Antimicrobial activity against Enterobacter cloacae P99 after 18 hrs by twofold agar dilution method; format: functional; settings: P99, 18 h
Staphylococcus aureus [18] = experiment: Antimicrobial activity against Staphylococcus aureus ATCC 6538P after 18 hrs by twofold agar dilution method; format: functional
Citrobacter freundii = experiment: Antimicrobial activity against Citrobacter freundii 8090 after 18 hrs by twofold agar dilution method; format: functional; settings: Citrobacter freundii, 8090, 18 h
[19] = tested on: Acinetobacter calcoaceticus; experiment: Antimicrobial activity against Acinetobacter calcoaceticus ATCC 15473 after 18 hrs by twofold agar dilution method; format: functional; settings: ATCC 15473, 18 h

Structure (SMILES) | MIC (Salmonella typhimurium [1]) | MIC (Citrobacter koseri) | MIC (Klebsiella aerogenes) | MIC (Klebsiella pneumoniae) | MIC (Staphylococcus aureus [5]) | MIC [6] | MIC (Micrococcus luteus) | MIC (Escherichia coli [8]) | MIC (Morganella morganii) | MIC (Serratia marcescens [9]) | MIC (Proteus vulgaris) | MIC (Serratia marcescens [10]) | MIC (Staphylococcus aureus [11]) | MIC (Bacillus subtilis) | MIC (Enterobacter cloacae [13]) | MIC (Salmonella typhimurium [14]) | MIC (Pseudomonas aeruginosa) | MIC (Enterobacter cloacae [17]) | MIC (Staphylococcus aureus [18]) | MIC (Citrobacter freundii) | further results
C[C@H](CO)[C@H]1CC[C@H]2[C@@H]3[C@H](F)C[C@H]4C[C@@H](NCCCNCCCCN)CC[C@]4(C)[C@H]3CC[C@]12C.Cl.Cl.Cl | > 32 mg/L | > 32 mg/L | > 32 mg/L | > 32 mg/L | 8 mg/L | 16 mg/L | 16 mg/L | > 32 mg/L | > 32 mg/L | > 32 mg/L | > 32 mg/L | > 32 mg/L | 8 mg/L | 16 mg/L | > 32 mg/L | > 32 mg/L | > 32 mg/L | > 32 mg/L | 8 mg/L | > 32 mg/L | MIC (Enterococcus faecalis; read-out: MIC): < 32 mg/L; MIC (Escherichia coli [2]): > 32 mg/L; MIC (Bacillus cereus): > 32 mg/L; MIC (Moraxella catarrhalis [3]; read-out: MIC): 32 mg/L; MIC (Staphylococcus aureus [4]; read-out: MIC): 8 mg/L; MIC (Escherichia coli [7]): > 32 mg/L; MIC (Bacillus licheniformis; read-out: MIC): < 32 mg/L; MIC (Staphylococcus aureus [12]): > 32 mg/L; MIC (Escherichia coli [15]; read-out: MIC): < 32 mg/L; MIC (Moraxella catarrhalis [16]): > 32 mg/L; MIC [19]: > 32 mg/L
C[C@H](CO)[C@H]1CC[C@H]2[C@@H]3CC[C@@H]4C[C@@H](NCCCNCCCCNCCCN)CC[C@]4(C)[C@H]3CC[C@]12C.Cl.Cl.Cl.Cl | > 32 mg/L | > 32 mg/L | > 32 mg/L | > 32 mg/L | 4 mg/L | 4 mg/L | 2 mg/L | > 32 mg/L | > 32 mg/L | > 32 mg/L | > 32 mg/L | > 32 mg/L | 2 mg/L | 2 mg/L | > 32 mg/L | > 32 mg/L | > 32 mg/L | > 32 mg/L | 1 mg/L | > 32 mg/L | MIC (Enterococcus faecalis; read-out: MIC): 32 mg/L; MIC (Escherichia coli [2]; read-out: MIC): 32 mg/L; MIC (Bacillus cereus; read-out: MIC): < 32 mg/L; MIC (Moraxella catarrhalis [3]): > 32 mg/L; MIC (Staphylococcus aureus [4]; read-out: MIC): 2 mg/L; MIC (Escherichia coli [7]; read-out: MIC): 32 mg/L; MIC (Bacillus licheniformis): > 32 mg/L; MIC (Staphylococcus aureus [12]; read-out: MIC): 16 mg/L; MIC (Escherichia coli [15]; read-out: MIC): 32 mg/L; MIC (Moraxella catarrhalis [16]): > 32 mg/L; MIC [19]: > 32 mg/L
C[C@H](CO)[C@H]1CC[C@H]2[C@@H]3CC[C@H]4C[C@@H](NCCCNCCCCNCCCN)CC[C@]4(C)[C@H]3CC[C@]12C.Cl.Cl.Cl.Cl | > 32 mg/L | > 32 mg/L | > 32 mg/L | > 32 mg/L | 32 mg/L | 32 mg/L | 32 mg/L | > 32 mg/L | > 32 mg/L | > 32 mg/L | > 32 mg/L | > 32 mg/L | 8 mg/L | 8 mg/L | > 32 mg/L | > 32 mg/L | > 32 mg/L | > 32 mg/L | 8 mg/L | > 32 mg/L | MIC (Enterococcus faecalis; read-out: MIC): < 32 mg/L; MIC (Escherichia coli [2]; read-out: MIC): < 32 mg/L; MIC (Bacillus cereus; read-out: MIC): < 32 mg/L; MIC (Moraxella catarrhalis [3]; read-out: MIC): < 32 mg/L; MIC (Staphylococcus aureus [4]): > 32 mg/L; MIC (Escherichia coli [7]): > 32 mg/L; MIC (Bacillus licheniformis; read-out: MIC): 32 mg/L; MIC (Staphylococcus aureus [12]; read-out: MIC): 32 mg/L; MIC (Escherichia coli [15]): > 32 mg/L; MIC (Moraxella catarrhalis [16]; read-out: MIC): < 32 mg/L; MIC [19]: > 32 mg/L
C[C@H](CO)[C@H]1CC[C@H]2[C@@H]3[C@H](O)C[C@H]4C[C@@H](NCCCNCCCCN)CC[C@]4(C)[C@H]3CC[C@]12C.Cl.Cl.Cl | > 32 mg/L | > 32 mg/L | > 32 mg/L | > 32 mg/L | 32 mg/L | 32 mg/L | 16 mg/L | > 32 mg/L | > 32 mg/L | > 32 mg/L | > 32 mg/L | > 32 mg/L | 16 mg/L | 16 mg/L | > 32 mg/L | > 32 mg/L | > 32 mg/L | > 32 mg/L | 16 mg/L | > 32 mg/L | MIC (Enterococcus faecalis): > 32 mg/L; MIC (Escherichia coli [2]): > 32 mg/L; MIC (Bacillus cereus): > 32 mg/L; MIC (Moraxella catarrhalis [3]; read-out: MIC): < 32 mg/L; MIC (Staphylococcus aureus [4]; read-out: MIC): 16 mg/L; MIC (Escherichia coli [7]; read-out: MIC): < 32 mg/L; MIC (Bacillus licheniformis; read-out: MIC): < 32 mg/L; MIC (Staphylococcus aureus [12]; read-out: MIC): < 32 mg/L; MIC (Escherichia coli [15]; read-out: MIC): < 32 mg/L; MIC (Moraxella catarrhalis [16]): > 32 mg/L; MIC [19]: > 32 mg/L

From ChEMBL document CHEMBL1795286, “A concise synthesis and antimicrobial activities of 3-polyamino-23,24-bisnorcholanes as steroid-polyamine conjugates” (2011)
